# Measured values: US10172921B2, “Method of treating an inflammatory bowel disease comprising agonists of orexin-1 receptor” (INSERM (INSTITUT NATIONAL DE LA SANTÉ ET DE LA RECHERCHE …, priority 2014, dated 2019)
# Legend:
# [1] = tested on: EXCY2 mice; experiment: Spontaneous UC-like colitis in EXCY2 mice (IL10-/-; Nox1-/-): DAI, colon histology, stress pathways; assay type: in vivo; conditions: for DAI score: OxA 0.22 μmoles/kg intraperitoneal or 5-ASA 0.053 g/kg oral, scale 0 (no symptoms) to 4 (severe colitis), untreated mice 4, FIG. 7; for severe colitis: 10 week-old EXCY2 mice, 2 IP/week during 3 weeks
# Description: FIG. 4: Histological aspect of colon mucosa in OxA treated mice (right) and non-treated mice (left)
# FIG. 7: OXA better improves the DAI (weight and colitis score) of EXCY2 mice that the gold standard 5-aminosalicylic acid (5-ASA) treatment. Mice were intraperitoneal injected or not with OxA (0.22 μmoles/kg) or orally treated with 5-ASA (0.053 g/kg). DAI score including the weight loss, severity of diarrhea, the presence of blood in the stool, inflammation and edema was estimated using a scale ranging from 0 (no symptoms) to 4 (severe colitis).
# DSS mouse model has been extensively used to decipher the mucosal inflammation in IBD, UC pathogenesis, and preclinical studies. However, mice show differential susceptibilities and responsiveness to DSS-induced colitis depending on their genetic background, gender. DSS model is a faithful model of inflammation but departs from Ulcerative Colitis in part for lack of the inflammation gradient from the rectum to the proximal colon usually observed in UC, any deregulation of ER stress in goblet cells known to be an early etiological factor of UC, and no digestive or extra-digestive complications of UC such as cholangitis and colorectal cancer, respectively. The use of genetically modified mice model represents a good alternative to chemically-induced colitis mice model. The recent development of a new spontaneous UC-like mouse model (EXCY2 mice, WO/2012/140516) consisting of a double KO of IL10 and Nox1 (IL10^−/−; Nox1^−/−) is ideally suited to study the OxA effect on spontaneous colitis. Indeed, EXCY2 mice 1) develop a spontaneous colitis at 6/7 weeks of age with an upwards gradient from the rectum and reproduce all molecular characteristics seen in UC including, loss of goblet cells, deregulation of ER stress, protective effect of tobacco; 2) spontaneously colonic cancer at 8 months of age (35-40% of mice); 3) develop mild cholangitis.
# (§1) In contrast, the secretion of anti-inflammatory cytokine IL10 was unchanged (FIG. 6).
# The treatment of EXCY2 mice with 5-ASA reduced the DAI score as compared to untreated mice, i.e. 3 vs 4, respectively.
# [2] = tested on: cytokines secretion in colon extracts from DSS-treated mice; experiment: Cytokine secretion in colon extracts of DSS-induced colitis mice; assay type: in vivo; conditions: FIG. 3
# Description: FIG. 3: OXA effects on cytokines secretion in DSS-induced colitis mice
# (§2) These observations are confirmed by histologic aspect of colon epithelium (histologic scoring by a GI pathologist). Thus, OxA has probably an anti-inflammatory effect on DSS-induced colitis. To confirm this hypothesis, we have investigated the anti-inflammatory effect of OxA treatment on cytokines secretion in colon extracts from DSS-treated mice. […] In contrast, OxA has no effect on INFγ, IL10, and IL12 cytokine secretion in colon extracts (FIG. 3).
# [3] = tested on: Caco2 cells; experiment: Oxidative stress and ER stress pathways in Caco2 cells; assay type: cell-based
# [4] = tested on: DSS-induced colitis mice; experiment: DSS-induced colitis in mice: Disease Activity Index and colon histology; assay type: in vivo
# Description: FIG. 2: OXA ameliorates the DAI (weight and colitis score) of DSS-induced colitis mice. Mice were orally treated with 5% DSS for 7 days.
# FIG. 5: OXA ameliorates the DAI (weight and colitis score) of DSS-induced colitis mice. Mice were orally treated with 5% DSS for 7 days in the presence or in the absence of daily intraperitoneal injection of OxA (0.22 μmoles/kg). DAI score including weight loss, severity of diarrhea, the presence of blood in the stool, inflammation and edema was estimated using a scale ranging from 0 (no symptoms) to 4 (severe colitis). DSS, dextran sulfate sodium; WT, wild type mice.
# Based on these observations, we have investigated the effect of Orexin A (OxA) on acute inflammation in mice treated with Dextran Sulfate Sodium (DSS). OxA was preferentially chosen in these experiments since the presence of two disulphide bridges confers it more stability. DSS induces acute colitis characterized by weight loss, bloody diarrhea, intestinal ulcerations and infiltrations with granulocytes.
# as §2
# As shown in FIG. 5 when DSS-induced colitis mice were treated with OxA, the DAI score was ameliorated (about of 1.5).
# [5] = tested on: cytokines secretion in EXCY2 mice; experiment: Cytokine secretion in colons of EXCY2 mice (Cytokine CBA kits); assay type: in vivo; conditions: OxA 0.22 μmoles/kg, FIG. 6
# Experimental: FIG. 6: OXA effects on cytokines secretion in EXCY2 mice. Colons of EXCY2 mice from untreated mice (white) and treated with OxA (0.22 μmoles/kg) treatment (black) were resected after animal sacrifice. Then, protein extraction was performed by tissue disruption. Cytokines were determined using Cytokine CBA kits (see Material and Methods).
# as §1
# [6] = colon extracts of DSS-induced colitis mice
# [7] = colon extracts of DSS-treated mice
compound,measurement,setting,value
"Nc1ccc(O)c(C(=O)O)c1 [5-ASA, 5-aminosalicylic acid, reference compound]",DAI score,[1]; EXCY2 mice,3
Orexin-A (XPLPDCCRQKTCSCRLYELLHGAGNHAAGILTLX; not fully specified; two disulphide bridges; MOD_RES (1)..(1) PYRROLIDONE CARBOXYLIC ACID; (34)..(34) Xaa can be any naturally occurring amino acid; listed as Homo sapiens) [OxA],severe colitis,[1]; 0.22 μmoles/kg OxA,alleviated
same,severe colitis,[1]; 1 μM OxA,alleviated
same,deregulated pathways involved in the onset of colitis (oxidative stress and ER stress),[1]; EXCY2 mice,induced
same,DAI score,[1]; EXCY2 mice,1.5
same,"colonic mucosa (general crypts aspect, crypt size, presence of goblet cells, absence of immune cells infiltration)","[1]; OxA-treated vs vehicle treated EXCY2 mice, FIG. 4",normal colonic mucosa
same,IL1B secretion,[2]; [6],reduces
same,IL6 secretion,[2]; [6],reduces
same,IL8 homolog secretion,[2]; [6],reduces
same,TNFα secretion,[2]; [6],reduces
same,IL10 cytokine secretion,[2]; [7],no effect
same,IL12 cytokine secretion,[2]; [7],no effect
same,INFγ cytokine secretion,[2]; [7],no effect
same,deregulated pathways involved in the onset of colitis (oxidative stress and ER stress),[3],induced
same,DAI score,"[4]; 5% DSS orally 7 days, daily intraperitoneal OxA 0.22 μmoles/kg, scale 0 (no symptoms) to 4 (severe colitis), FIG. 5, printed as 'ameliorated (about of 1.5)'",~1.5
same,histologic aspect of colon epithelium,"[4]; DSS-treated mice, histologic scoring by a GI pathologist",ameliorates
same,"Disease Activity Index (DAI) scored by measuring weight, length of colon, diarrhea and the presence of blood in the stool","[4]; orally DSS-treated mice (5% DSS for 7 days), FIG. 2",ameliorates
same,IFNγ secretion,[5],strong reduction
same,IL6 secretion,[5],strong reduction
same,IL10 secretion,[5],unchanged
same,IL12 secretion,[5],strong reduction
same,MCP1 secretion,[5],strong reduction
same,TNFα secretion,[5],strong reduction
